Here are results for seven compounds from PubChem BioAssay (NCI).

Among the test systems are 786-0 renal; SNB-19 CNS; RPMI-8226 leukemia; UO-31 renal; SK-OV-3 ovarian; HOP-92 NSCLC; OVCAR-8 ovarian; OVCAR-5 ovarian; HOP-62 NSCLC; MCF7 breast; SK-MEL-5 melanoma; HCT-116 colon; MALME-3M melanoma; NCI-H23 lung; NCI-H226 lung; CAKI-1 renal; T-47D breast; HT29 colon; MDA-MB-435; HL-60(TB) leukemia.
What all share (test): DTP human tumour cell line panel, 48 h

Each structure is given as a SMILES string.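 Where inhibition never reached the appropriate level, the endpoint shown equals the highest concentration tested. Otherwise, values were interpolated linearly from a five-concentration, 48-hour dose response in 96-well plates. TGI is the concentration that stops growth completely.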

`CC(NC(NC(C)C12CC3CC(CC(C3)C1)C2)=C(C(Cl)=C(Cl)Cl)[N+](=O)[O-])C12CC3CC(CC(C3)C1)C2` (configuration not stated): the TGI with 786-0 renal is above 100 µM; with SNB-19 CNS it was above 100 µM; in the experiment with RPMI-8226 leukemia, above 69.5 µM; in the experiment on UO-31 renal it was above 100 µM; with SK-OV-3 ovarian, above 100 µM; with HOP-92 NSCLC it was 17.3 µM. In addition, the TGI is 7.41 µM in the experiment on OVCAR-8 ovarian; above 100 µM in the experiment on OVCAR-5 ovarian; above 100 µM in the experiment with HOP-62 NSCLC; above 58.7 µM in the experiment on MCF7 breast; 36.3 µM in the experiment on SK-MEL-5 melanoma; 40 µM in the experiment on HCT-116 colon. Further, the TGI with MALME-3M melanoma was above 95.6 µM; in the experiment on NCI-H23 lung it was 34.3 µM; in the experiment with NCI-H226 lung, above 61.7 µM; in the experiment on CAKI-1 renal it was above 100 µM; in the experiment on T-47D breast, above 100 µM; with HT29 colon, 18.1 µM. This compound also displayed a concentration for total growth inhibition (TGI) in the experiment with MDA-MB-435 above 100 µM.

For `COC(=O)c1c2c(cc3c1CC1(Cc4cc5c(cc4C1)CCC5)C3)CCC2`, the TGI in the experiment on HL-60(TB) leukemia, with 786-0 renal, in the experiment with SNB-19 CNS, with RPMI-8226 leukemia, with UO-31 renal and in the experiment with SK-OV-3 ovarian was above 100 µM throughout. For the same compound, the TGI in the experiment with HOP-92 NSCLC, in the experiment on OVCAR-8 ovarian, in the experiment with OVCAR-5 ovarian, in the experiment with HOP-62 NSCLC, in the experiment on MCF7 breast and with SK-MEL-5 melanoma was above 100 µM throughout. In addition, the TGI with HCT-116 colon, in the experiment on MALME-3M melanoma, with NCI-H23 lung, with CAKI-1 renal, in the experiment with T-47D breast and in the experiment on HT29 colon was above 100 µM throughout. In the experiment on MDA-MB-435, the TGI is above 100 µM.

In the case of `Oc1ccc(-c2cn3cc(C(F)(F)F)ccc3n2)cc1`, the TGI with HL-60(TB) leukemia, in the experiment with 786-0 renal, in the experiment on SNB-19 CNS, with UO-31 renal, in the experiment with SK-OV-3 ovarian and in the experiment on HOP-92 NSCLC was above 100 µM throughout. Also, the TGI in the experiment with OVCAR-8 ovarian, with OVCAR-5 ovarian, in the experiment on HOP-62 NSCLC, in the experiment on MCF7 breast, in the experiment on SK-MEL-5 melanoma and in the experiment with HCT-116 colon was above 100 µM in each case. Moreover, the TGI in the experiment on MALME-3M melanoma was above 100 µM; with NCI-H23 lung it was above 100 µM; in the experiment with NCI-H226 lung, above 100 µM; in the experiment with CAKI-1 renal it was above 100 µM; in the experiment with T-47D breast, 60.7 µM; in the experiment on HT29 colon, above 100 µM. In the experiment with MDA-MB-435, the TGI was above 100 µM.

With `COC(=O)[C@@H]1Cc2cc(O)c(O)cc2C2(CCN(C)CC2)O1`, the TGI in the experiment on HL-60(TB) leukemia, with 786-0 renal, in the experiment with SNB-19 CNS, with RPMI-8226 leukemia, in the experiment on SK-OV-3 ovarian and in the experiment on HOP-92 NSCLC was above 10 µM throughout. Besides, the TGI with OVCAR-8 ovarian, with OVCAR-5 ovarian, in the experiment with HOP-62 NSCLC, in the experiment on MCF7 breast, in the experiment on SK-MEL-5 melanoma and in the experiment with HCT-116 colon was above 10 µM throughout. For the same compound, the TGI in the experiment with MALME-3M melanoma, in the experiment on NCI-H23 lung, in the experiment with NCI-H226 lung, in the experiment on CAKI-1 renal, in the experiment with T-47D breast and with HT29 colon was above 10 µM in each case. The compound further came in with a TGI with MDA-MB-435 above 10 µM.

On to `Cc1c(-c2ccccc2)c(C#N)c2nnn(-c3cccc(Cl)c3)c(=O)n12`, for which the TGI is above 100 µM in the experiment on HL-60(TB) leukemia; 86.6 µM in the experiment on 786-0 renal; above 100 µM in the experiment with RPMI-8226 leukemia; above 100 µM in the experiment on SK-OV-3 ovarian; above 100 µM in the experiment with HOP-92 NSCLC; above 100 µM in the experiment with OVCAR-8 ovarian. Moreover, the TGI with OVCAR-5 ovarian, in the experiment with HOP-62 NSCLC, with MCF7 breast, in the experiment on SK-MEL-5 melanoma, in the experiment on HCT-116 colon and in the experiment on MALME-3M melanoma was above 100 µM throughout. The TGI in the experiment on NCI-H23 lung, with NCI-H226 lung, in the experiment with CAKI-1 renal, with T-47D breast, in the experiment with HT29 colon and in the experiment on MDA-MB-435 was above 100 µM throughout.

In the case of `COc1ncnc2c1cnn2Cc1cn(CCCCO)nn1`, the TGI in the experiment with 786-0 renal, in the experiment with SNB-19 CNS, in the experiment with RPMI-8226 leukemia, in the experiment with UO-31 renal, in the experiment on SK-OV-3 ovarian and in the experiment with HOP-92 NSCLC was above 100 µM in each case. In addition, the TGI in the experiment on OVCAR-8 ovarian, in the experiment with OVCAR-5 ovarian, in the experiment with HOP-62 NSCLC, in the experiment with MCF7 breast, in the experiment with SK-MEL-5 melanoma and in the experiment with HCT-116 colon was above 100 µM in each case. In addition, the TGI in the experiment on MALME-3M melanoma, with NCI-H23 lung, in the experiment with NCI-H226 lung, in the experiment with CAKI-1 renal, with T-47D breast and with HT29 colon was above 100 µM in each case. The TGI in the experiment with MDA-MB-435 was above 100 µM.

As for `CN(C)Cc1cc(N=Nc2ccc(Cl)cc2)ccc1O`, the TGI came out at 32.1 µM with HL-60(TB) leukemia; 25.8 µM in the experiment on 786-0 renal; 34.1 µM with SNB-19 CNS; 24.5 µM with UO-31 renal; 33.8 µM in the experiment with SK-OV-3 ovarian; 34.6 µM in the experiment on HOP-92 NSCLC. The TGI in the experiment with OVCAR-8 ovarian is 30.6 µM; in the experiment on OVCAR-5 ovarian, 26.3 µM; with HOP-62 NSCLC, 21.7 µM; with MCF7 breast, 31.4 µM; in the experiment with SK-MEL-5 melanoma, 27.6 µM; in the experiment on HCT-116 colon it was 31.2 µM. Moreover, the TGI in the experiment with MALME-3M melanoma was 27.2 µM; with NCI-H23 lung, 45.2 µM; with NCI-H226 lung, 30.3 µM; in the experiment with CAKI-1 renal it was 32.2 µM; in the experiment with T-47D breast, 28.3 µM; in the experiment with HT29 colon, 26.4 µM. The compound further showed a TGI with MDA-MB-435 of 30.3 µM.
